Measurements: patent publication US9433593B1, “Composition for anti-inflammation containing 5-adamantan-1-yl-N-(2,4-dihydroxy-benzyl)-2,4-dimethoxy-benzamide” (Amorepacific Corporation, priority 2015, dated 2016)

How the values were obtained:
AP-1 = AP-1 luciferase reporter gene assay; type: cell-based; settings: HEK 293 cells, AP-1-Luc, MyD88 or TRIF cotransfected, 8 hours
Description: (§1) RAW 264.7 cells (murine macrophage cell line) (ATCC, Rockville, Md., USA) and HEK 293 cells were cultured in RPMI 1640 medium supplemented with FBS (10% heat-inactivated fetal bovine serum; Gibco, Grand Island, N.Y., USA), glutamine and antibiotics (penicillin and streptomycin) at 37° C. under 5% CO2.
(§2) The activity of transcription factors can be tested by the luciferase reporter gene assay. It is known that the activity of NF-κB and AP-1 is induced by the TLR adapter protein. NF-κB and AP-1 are known to produce the inflammatory factors NO and PGE2.
(§3) HEK 293 cells (1×10^6 cells/well) were cotransfected with 1 μg of a plasmid containing NF-κB-Luc (luciferase) and AP-1-Luc constructs. The transfection was conducted on a 12-well plate by the PEI method. After 48 hours, the transformed cells were used for experiment. MyD88 or TRIF (1 μg/mL each), which are known as TLR adapter proteins, were cotransfected for 8 hours together with 5-adamantan-1-yl-N-(2,4-dihydroxybenzyl)-2,4-dimethoxybenzamide (5-adamantan-1-yl-N-(2,4-dihydroxybenzyl)-2,4-dimethoxybenzamide is denoted as ‘AP736’ in FIG. 5). The luciferase reporter gene assay was performed using the luciferase assay system (Promega, Madison, Wis.).

IL-1β = assay: LPS-induced IL-1β expression (RT-PCR); type: cell-based, murine; settings: RAW 264.7 cells, pretreated at different concentrations, LPS 4 hours
Description: (§4) The expression level of iNOS, COX-2 and IL-1β which are known as inflammation-inducing factors was measured.
(§5) In order to investigate the effect of 5-adamantan-1-yl-N-(2,4-dihydroxybenzyl)-2,4-dimethoxybenzamide on inhibition of iNOS, COX-2 and IL-1β expression in RAW 264.7 cells, the cells were pretreated with 5-adamantan-1-yl-N-(2,4-dihydroxybenzyl)-2,4-dimethoxybenzamide at different concentrations and then RT-PCR was conducted after treating with LPS for 4 hours.

[1] = tested on: NO production in RAW 264.7 cells; assay: NO production in LPS-treated cells (Griess test); type: cell-based, murine; settings: 0-30 μM for 30 minutes, then LPS (1 μg/mL) 24 hours, vs group treated only with LPS
Description: as §1
(§6) RAW 264.7 cells (1×10^6 cells/well) that had been preincubated for 18 hours were treated with 5-adamantan-1-yl-N-(2,4-dihydroxybenzyl)-2,4-dimethoxybenzamide (hereinafter, ‘AP736’) at concentrations of 0-30 μM for 30 minutes and then incubated for 6 hours or 24 hours with LPS (1 μg/mL). The supernatant was recovered after the incubation. The cells incubated for 6 hours were subjected to PGE2 analysis and those incubated for 24 hours were subjected to NO analysis. The NO concentration in the culture medium was measured by the Griess test (Promega, Madison, Wis., USA). And, the concentration of PGE2 released to the culture medium was measured using an EIA kit (Amersham, Little Chalfont, Buckinghamshire, UK).

NF-κB = NF-κB luciferase reporter gene assay; type: cell-based; settings: HEK 293 cells, NF-κB-Luc, MyD88 or TRIF cotransfected, 8 hours
Description: as §1, §2, §3

iNOS = assay: LPS-induced iNOS expression (RT-PCR); type: cell-based, murine; settings: RAW 264.7 cells, pretreated at different concentrations, LPS 4 hours
Description: as §4, §5

COX-2 = assay: LPS-induced COX-2 expression (RT-PCR); type: cell-based, murine; settings: RAW 264.7 cells, pretreated at different concentrations, LPS 4 hours
Description: as §4, §5

[2] = tested on: PGE2 production in RAW 264.7 cells; assay: PGE2 production in LPS-treated cells (EIA kit); type: cell-based, murine; settings: 0-30 μM for 30 minutes, then LPS (1 μg/mL) 6 hours, vs group treated only with LPS
Description: as §1, §6

RAW 264.7 cells = assay: Cytotoxicity by MTT method; type: cell-based
Description: as §1
In all experiments, the cells were detached with a cell scraper. When the cells were cultured to a density of 2×10^6 cells/mL, the ratio of dead cells was 1% or lower (determined by the trypan blue dye exclusion method)
During subculturing, RAW 264.7 cells were plated on a well plate to a concentration of 1×10^6 cells/well. After culturing for 18 hours, the cells were treated with 5-adamantan-1-yl-N-(2,4-dihydroxybenzyl)-2,4-dimethoxybenzamide (denoted as ‘AP736’ in FIG. 1) at concentrations of 0-30 μM. Then, the cells were cultured in an incubator for 8 hours or 24 hours. Cytotoxicity was evaluated by the commonly used MTT method. 3 hours before the last culturing, 10 μL of an MTT (3-[4,5-dimethylthiazol-2-yl]-2,5-diphenyltetrazolium bromide) solution (10 mg/mL in phosphate-buffered saline, pH 7.4) was added to each well. After terminating reaction by adding 15% SDS (sodium dodecyl sulfate) to each well, the formed formazan crystals were dissolved. Then, absorbance was measured at 570 nm on a microplate reader.

COc1cc(OC)c(C23CC4CC(CC(C4)C2)C3)cc1C(=O)NCc1ccc(O)cc1O [5-adamantan-1-yl-N-(2,4-dihydroxybenzyl)-2,4-dimethoxybenzamide]
activity of AP-1 (AP-1): decreased activity
expression of the mRNAs and proteins of IL-1β induced by LPS (IL-1β): distinctly inhibited
NO production [1]: statistically significant decrease in NO production with increasing concentration
activity of NF-κB (NF-κB): decreased activity
expression of the mRNAs and proteins of iNOS induced by LPS (iNOS): distinctly inhibited
expression of the mRNAs and proteins of COX-2 induced by LPS (COX-2): distinctly inhibited
concentration of PGE2 [2]: decreased as compared to the group treated only with LPS with increasing concentration
cell viability (RAW 264.7 cells; 10 μM, treated for 8 hours): 100%
cell viability (RAW 264.7 cells; 10 μM, treated for 24 hours): 100%
cell viability (RAW 264.7 cells; 20 μM, treated for 8 hours): 100%
cell viability (RAW 264.7 cells; 20 μM, treated for 24 hours): 100%
cell viability (RAW 264.7 cells; 30 μM, cultured for 24 hours): ~80%
